Experimental data: patent publication US20240335569A1, “FIBROBLAST ACTIVATION PROTEIN INHIBITORS AND USE THEREOF” (3 B PHARMACEUTICALS GMBH, priority 2021, published 2024)

Key:
Recombinant human DPP4 = Recombinant human DPP4 (Homo sapiens (Human), UniProt P27487); experiment: DPP4 protease activity assay; assay type: biochemical
Method: (§1) The PREP activity assay was performed using the FACS buffer (PBS including 1% FBS, Sigma-Aldrich, Cat #D8537). […] The DPP4 activity assay was performed in DPP assay buffer (25 mM Tris, pH 8.0). […] Four parameter logistic (4PL) curve fitting and pIC50 calculations were performed using ActivityBase software.

recombinant human PREP = recombinant human PREP (Homo sapiens (Human), UniProt P48147); experiment: PREP protease activity assay; assay type: biochemical
Method: as §1

Recombinant mouse FAP = Recombinant mouse FAP (Mus musculus (Mouse), UniProt P97321); experiment: FAP protease activity assay (mouse), FRET-based; assay type: biochemical; conditions: recombinant mouse FAP, FRET protease activity
Method: (§2) In order to determine the inhibitory activity a FRET-based FAP protease activity assay was established.
Four parameter logistic (4PL) curve fitting and pIC50 calculations were performed using ActivityBase software.

[1] = molecular target: FAP-expressing human WI-38 fibroblasts (Homo sapiens (Human), UniProt Q12884); experiment: FACS binding assay (competitive, Cy5-labeled 3BP-2935); conditions: for pIC50 (FACS): FAP-expressing WI-38 fibroblasts
Method: In order to determine binding of compounds according to the present invention to FAP-expressing cells, a competitive FACS binding assay was established. […] Cells were diluted in FACS buffer to a final concentration of 100.000 cells per ml and 200 μl of the cell suspension are transferred to a u-shaped non-binding 96-well plate (Greiner). […] Cell were washed twice with FACS buffer (see above) and resuspended in 200 μl FACS buffer. Cells were analyzed in an Attune NxT flow cytometer (Thermo Fisher Scientific). Median fluorescence intensities (Cy5 channel) were calculated by Attune NxT software and plotted against test compound concentrations. Four parameter logistic (4PL) curve fitting and pIC50 calculations were performed using ActivityBase software.

Human recombinant FAP [2] = molecular target: T1, Human recombinant FAP (Homo sapiens (Human), UniProt Q12884); experiment: Surface plasmon resonance assay (Biacore T200, SCK); assay type: binding; conditions: for HL [min] (Biacore): SPR dissociation half-life
Method: Surface plasmon resonance studies were performed using a Biacore™ T200 SPR system (Cytiva, formerly GE Healthcare). Briefly, polarized light is directed towards a gold-labeled sensor surface, and minimum intensity reflected light is detected. The angle of reflected light changes as molecules bind and dissociate. […] Test compounds are contacted with the loaded surface, and a real-time interaction profile with the FAP ligand is recorded in a sensorgram. In real-time, the association and dissociation of a binding interaction is measured, enabling calculation of association and dissociation rate constants and the corresponding affinity constants. Importantly, a background response is generated due to the difference in the refractive indices of the running and sample buffers, as well as unspecific binding of the test compounds to the flow cell surface. This background is measured and subtracted by running the sample on a control flow cell coated with the same density of capture antibody in the absence of immobilized FAP. Furthermore, baseline drift correction of the binding data is performed, which is caused by slow dissociation of the captured FAP from the immobilized antibody. This drift is measured by injecting running buffer through a flow cell with the antibody and FAP immobilized to the sensor surface.
Biacore™ CM5 sensor chips were used. […] A 150 μL aliquot was transferred into plastic vials and placed into the sample rack of the Biacore™ T200 instrument. Amine Coupling Kit Reagent solutions were transferred into plastic vials and placed into the sample rack: 90 μL of 0.4 M 1-ethyl-3-(3-dimethylaminopropyl) carbodiimide (EDC), and 90 μL of 0.1 M N-hydroxysuccinimide (NHS). A 130 μL aliquot of 1 M ethanolamine-HCl, pH 8.5, was transferred into plastic vials and placed into the sample rack. The Biacore™ liquid system was set-up as follows: Separate bottles containing distilled water (1 L), Running Buffer (500 mL), as well as an empty bottle for waste were placed onto the buffer tray. A preinstalled program for immobilization was used, with an immobilization level of 7000 RU. Immobilization was performed at 25° C. The immobilization procedure of anti-FAP antibodies was performed, as described in the Table 4.
Human recombinant FAP was diluted in Running Buffer to a final concentration of 20 μg/mL. A 100 μL aliquot of human FAP-Working-Solution was transferred into plastic vials and placed into a sample rack. A 0.5 mM Compound-Stock-Solution was prepared by dissolving each compound in DMSO. For each test compound, Compound-Stock-Solutions were diluted in Running Buffer (HBST) at 500 nM and further diluted with HBST-DMSO Buffer (0.1% DMSO). SPR binding analyses for binary complexes were performed in SCK mode at 25° C. Following three SCK measurements, a baseline drift was assessed by injecting running buffer through a flow cell, with the antibody and FAP immobilized to the sensor surface.
For each test compound, SPR raw data in the form of resonance units (RU) were plotted as sensorgrams using the Biacore™ T200 control software. The signal from the blank sensorgram was subtracted from that of the test compound sensorgram (blank corrected). The blank corrected sensorgram was corrected for baseline drift by subtracting the sensorgram of a SCK run without the test compound (running buffer only). The association rate (kon), dissociation rate (koff), dissociation constant (KD), and t1/2 were calculated from Blank-normalized SPR data using the 1:1 Langmuir binding model from the Biacore™ T200 evaluation software. Raw data and fit results were imported as text files in IDBS. The pKD value (negative decadic logarithm of dissociation constant) was calculated in the IDBS excel template.
Target sequence in this assay (Q12884 whole entry): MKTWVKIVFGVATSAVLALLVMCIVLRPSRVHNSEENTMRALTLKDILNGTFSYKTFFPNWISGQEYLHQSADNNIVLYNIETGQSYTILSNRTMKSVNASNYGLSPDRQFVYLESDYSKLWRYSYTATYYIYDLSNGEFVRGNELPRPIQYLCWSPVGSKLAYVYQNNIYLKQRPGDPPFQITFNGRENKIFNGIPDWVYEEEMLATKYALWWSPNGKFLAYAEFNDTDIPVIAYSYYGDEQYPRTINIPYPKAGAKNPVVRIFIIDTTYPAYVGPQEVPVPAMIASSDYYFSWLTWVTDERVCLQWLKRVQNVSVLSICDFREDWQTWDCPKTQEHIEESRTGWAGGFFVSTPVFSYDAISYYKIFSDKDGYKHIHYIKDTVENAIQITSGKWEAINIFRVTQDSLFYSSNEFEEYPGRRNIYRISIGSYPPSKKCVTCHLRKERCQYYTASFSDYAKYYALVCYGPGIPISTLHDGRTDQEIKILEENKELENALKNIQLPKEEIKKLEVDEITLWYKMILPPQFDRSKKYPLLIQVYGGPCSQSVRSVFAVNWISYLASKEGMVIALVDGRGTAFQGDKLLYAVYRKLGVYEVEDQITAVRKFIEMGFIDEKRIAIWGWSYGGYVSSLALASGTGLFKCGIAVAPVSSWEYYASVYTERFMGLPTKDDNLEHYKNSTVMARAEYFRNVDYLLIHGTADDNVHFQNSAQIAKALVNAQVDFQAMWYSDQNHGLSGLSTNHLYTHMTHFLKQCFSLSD

Human recombinant FAP [3] = molecular target: T1, Human recombinant FAP; experiment: FAP protease activity assay (human), FRET-based; assay type: biochemical; conditions: for pIC50 (Activity): recombinant human FAP, FRET protease activity
Method: as §2
Target sequence in this assay (Q12884 26-760): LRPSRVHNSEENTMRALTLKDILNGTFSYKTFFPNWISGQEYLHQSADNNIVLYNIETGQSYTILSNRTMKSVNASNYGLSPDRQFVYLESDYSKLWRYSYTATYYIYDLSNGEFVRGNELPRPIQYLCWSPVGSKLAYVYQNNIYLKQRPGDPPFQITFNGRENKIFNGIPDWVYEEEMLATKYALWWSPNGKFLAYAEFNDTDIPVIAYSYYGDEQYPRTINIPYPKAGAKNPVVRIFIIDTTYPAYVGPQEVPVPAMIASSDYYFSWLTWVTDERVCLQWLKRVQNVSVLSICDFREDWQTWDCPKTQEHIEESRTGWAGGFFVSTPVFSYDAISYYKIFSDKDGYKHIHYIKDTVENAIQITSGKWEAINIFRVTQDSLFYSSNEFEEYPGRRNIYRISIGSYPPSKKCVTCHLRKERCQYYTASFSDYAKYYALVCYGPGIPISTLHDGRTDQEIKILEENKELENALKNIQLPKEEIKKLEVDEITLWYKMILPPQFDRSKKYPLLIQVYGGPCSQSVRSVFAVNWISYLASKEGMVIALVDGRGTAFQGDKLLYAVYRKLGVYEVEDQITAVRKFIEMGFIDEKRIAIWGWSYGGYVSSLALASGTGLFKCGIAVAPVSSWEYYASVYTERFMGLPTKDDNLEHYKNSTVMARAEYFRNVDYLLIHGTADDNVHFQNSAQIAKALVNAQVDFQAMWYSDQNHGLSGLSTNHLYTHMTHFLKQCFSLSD
Four parameter logistic (4PL) curve fitting and pIC50 calculations were performed using ActivityBase software (IDBS).

[4] = Plasma stability assay (mouse plasma); assay type: in vitro ADME; conditions: 37° C., 4 h
Method: In order to determine the stability of selected compounds of the invention in human and mouse plasma, a plasma stability assay was carried out. Such plasma stability assay measures degradation of compounds of the present invention in blood plasma. This is an important characteristic of a compound as compounds, with the exception of pro-drugs, which rapidly degrade in plasma, generally show poor in vivo efficacy. […] The stability is sufficient for the diagnostic, therapeutic and theragnostic use of these compounds according to the present invention.
The plasma stability samples were prepared by spiking 50 μl plasma aliquots (all sodium citrate 3.8%) with 1 μL of a 0.5 mM compound stock solution in DMSO. After vortexing, the samples were incubated in a Thermomixer at 37° C. for 4 or 6 hours. After incubation, the samples were stored on ice until further treatment. All samples were prepared in duplicates.
A suitable internal standard was added to each sample (1 μL of a 0.5 mM stock solution in DMSO). Protein precipitation was performed using two different methods depending on the compound conditions as indicated in Table 7. • A) 250 μL of acetonitrile containing 1% trifluoroacetic acid was added. […] After incubation at room temperature for 30 min, the precipitate was separated by centrifugation. To 100 μL of the supernatant 10 μL of 1% formic acid was added followed by further incubation at 60° C. for 10 min to complete the formation of the zinc chelate, if the compound contains a free DOTA moiety.
The determination of the analyte in the clean sample solutions was performed on an Agilent 1290 UHPLC system coupled to an Agilent 6530 Q-TOF mass spectrometer. The chromatographic separation was carried out on a Phenomenex BioZen XB-C18 HPLC column (50×2 mm, 1.7 μm particle size) with gradient elution using a mixture of 0.1% formic acid in water as eluent A and acetonitrile as eluent B (2% B to 41% in 7 min, 800 μL/min, 40° C.). Mass spectrometric detection was performed in positive ion ESI mode by scanning the mass range from m/z 50 to 3000 with a sampling rate of 2/sec.
From the mass spectrometric raw data, the ion currents for the double or triple charged monoisotopic signal was extracted for both, the compound and the internal standard.
Quantitation was performed by external matrix calibration with internal standard using the integrated analyte signals.
The result is stated as “% intact compound remaining after 4 h or 6 h” and means that from the amount of material at the start of the experiment the stated percentage is detected as unchanged material at the end of the experiment by LC-MS quantification. Since all compounds are more than 50% intact after at least 4 h they are considered as stable enough for diagnostic and therapeutic applications.

Sequence of recombinant human PREP (P48147 whole entry): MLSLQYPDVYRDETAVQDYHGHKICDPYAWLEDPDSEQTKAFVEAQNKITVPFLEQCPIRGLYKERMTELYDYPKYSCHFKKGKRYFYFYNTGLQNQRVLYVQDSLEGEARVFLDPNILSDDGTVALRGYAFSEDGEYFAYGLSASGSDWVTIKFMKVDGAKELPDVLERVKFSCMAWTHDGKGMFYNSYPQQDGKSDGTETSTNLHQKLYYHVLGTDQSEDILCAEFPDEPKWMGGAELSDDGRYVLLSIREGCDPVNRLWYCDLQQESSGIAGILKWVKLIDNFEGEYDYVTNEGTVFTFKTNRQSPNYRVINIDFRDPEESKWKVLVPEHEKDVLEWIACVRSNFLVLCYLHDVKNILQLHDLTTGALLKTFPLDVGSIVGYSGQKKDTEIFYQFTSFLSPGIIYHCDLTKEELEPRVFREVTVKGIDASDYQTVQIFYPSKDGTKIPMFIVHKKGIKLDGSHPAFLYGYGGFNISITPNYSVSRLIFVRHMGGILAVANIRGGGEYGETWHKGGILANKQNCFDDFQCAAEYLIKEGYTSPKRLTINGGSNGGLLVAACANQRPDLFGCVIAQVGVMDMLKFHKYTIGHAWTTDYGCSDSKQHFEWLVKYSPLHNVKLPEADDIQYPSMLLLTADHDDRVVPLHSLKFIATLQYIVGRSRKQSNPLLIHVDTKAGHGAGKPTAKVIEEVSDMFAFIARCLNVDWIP
Sequence of Recombinant human DPP4 (P27487 whole entry): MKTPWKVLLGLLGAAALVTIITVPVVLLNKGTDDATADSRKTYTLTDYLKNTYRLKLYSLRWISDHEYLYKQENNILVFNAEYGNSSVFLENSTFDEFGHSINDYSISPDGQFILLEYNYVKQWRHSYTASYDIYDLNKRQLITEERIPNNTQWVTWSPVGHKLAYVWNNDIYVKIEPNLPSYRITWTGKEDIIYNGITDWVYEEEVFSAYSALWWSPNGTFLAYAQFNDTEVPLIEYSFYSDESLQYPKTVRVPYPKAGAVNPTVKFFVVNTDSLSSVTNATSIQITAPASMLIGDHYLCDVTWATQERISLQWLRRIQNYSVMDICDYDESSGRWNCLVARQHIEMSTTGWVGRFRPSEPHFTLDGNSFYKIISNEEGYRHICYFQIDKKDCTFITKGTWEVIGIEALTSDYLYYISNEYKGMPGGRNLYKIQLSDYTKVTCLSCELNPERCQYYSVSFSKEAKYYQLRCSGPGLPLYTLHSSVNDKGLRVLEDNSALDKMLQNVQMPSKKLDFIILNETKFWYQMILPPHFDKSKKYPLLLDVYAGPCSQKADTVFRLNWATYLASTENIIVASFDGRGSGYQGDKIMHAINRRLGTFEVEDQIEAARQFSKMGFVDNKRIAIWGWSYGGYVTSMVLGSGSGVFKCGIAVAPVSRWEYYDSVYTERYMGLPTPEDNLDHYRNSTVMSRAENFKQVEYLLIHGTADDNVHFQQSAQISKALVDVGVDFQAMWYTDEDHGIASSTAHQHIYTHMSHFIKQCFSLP
Sequence of FAP-expressing human WI-38 fibroblasts (Q12884 whole entry): as the sequence (Q12884 whole entry) above
Sequence of Recombinant mouse FAP (P97321 whole entry): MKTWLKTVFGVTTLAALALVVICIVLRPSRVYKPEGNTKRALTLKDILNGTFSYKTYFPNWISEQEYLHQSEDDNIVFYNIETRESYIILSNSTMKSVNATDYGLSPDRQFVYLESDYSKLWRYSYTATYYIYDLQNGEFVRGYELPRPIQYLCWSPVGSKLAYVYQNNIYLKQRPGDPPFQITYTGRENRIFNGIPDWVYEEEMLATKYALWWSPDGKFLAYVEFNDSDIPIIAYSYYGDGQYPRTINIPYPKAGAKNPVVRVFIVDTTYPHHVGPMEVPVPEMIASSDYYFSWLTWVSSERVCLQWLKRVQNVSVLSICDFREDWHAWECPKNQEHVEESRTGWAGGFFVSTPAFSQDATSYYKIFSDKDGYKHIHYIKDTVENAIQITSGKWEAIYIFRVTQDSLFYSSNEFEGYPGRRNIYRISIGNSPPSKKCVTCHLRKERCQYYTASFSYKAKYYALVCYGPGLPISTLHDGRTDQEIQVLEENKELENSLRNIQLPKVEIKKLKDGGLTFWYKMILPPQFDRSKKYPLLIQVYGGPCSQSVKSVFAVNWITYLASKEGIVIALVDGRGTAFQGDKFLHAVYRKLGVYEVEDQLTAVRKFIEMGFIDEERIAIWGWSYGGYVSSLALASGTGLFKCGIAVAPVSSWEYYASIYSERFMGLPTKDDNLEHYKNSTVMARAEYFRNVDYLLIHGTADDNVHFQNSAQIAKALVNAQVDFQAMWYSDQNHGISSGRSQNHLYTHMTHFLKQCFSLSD

SMILES	pIC50 (DPP4) (Recombinant human DPP4)	pIC50 (PREP) (recombinant human PREP)	pIC50 (mouseFAP) (Recombinant mouse FAP)	pIC50 (FACS) [1]	pKD (Biacore) (Human recombinant FAP [2]; SPR)	HL [min] (Biacore) (Human recombinant FAP [2])	pIC50 (Activity) (Human recombinant FAP [3])	% intact compound remaining after incubation, Mouse plasma [4] [%]	IC50 (Recombinant human DPP4; read-out: pIC50 (DPP4) (converted)) [nM]	IC50 (recombinant human PREP) [nM]	IC50 ([1]; WI-38 fibroblasts) [nM]	Kd (Human recombinant FAP [2]; SPR, read-out: pKD (Biacore) (converted)) [nM]	IC50 (Human recombinant FAP [3]; human FAP protease activity, FRET, read-out: pIC50 (Activity) (converted)) [nM]
CS(=O)(=O)c1ccc(-c2ccc3nccc(C(=O)NCC(=O)N4CC(F)(F)C[C@H]4C#N)c3c2)cc1 [Compound 3BP-3233]	<6	<6	9.1	9	>10.5	130	9.2						
CC(C)(C)c1nnc(C(=O)[C@@H]2CCCN2C(=O)CNC(=O)c2ccnc3ccccc23)o1 [Compound 3BP-3632]	<6	8.9	8.4	7.8	8.6	0.4	8.4						
CS(=O)(=O)c1cccc(-c2ccc3c(C(=O)NCC(=O)N4CC(F)(F)C[C@H]4C#N)ccnc3c2)c1 [Compound 3BP-3127]	<6	<6	8.9	8.7	10.1		9.1	>95					
CS(=O)(=O)c1cccc(-c2ccc3nccc(C(=O)NCC(=O)N4CC(F)(F)C[C@H]4C#N)c3c2)c1 [Compound 3BP-3126]	6.1	<6	9	8.8	10.1	29	9.2	78					
N#C[C@@H]1CCCN1C(=O)CNC(=O)c1ccnc2ccc(-c3ccc(C(=O)NCCCN(CC(=O)O)C(=O)CN4CCN(CC(=O)O)CCN(CC(=O)O)CCN(CC(=O)O)CC4)cc3)cc12 [Compound 3BP-3954, (S)-2,2′,2″-(10-(2-((carboxymethyl)(3-(4-(4-(2-(2-cyanopyrrolidin-1-yl)-2-oxoethylcarbamoyl)quinolin-6-yl)benzamido)propyl)amino)-2-oxoethyl)-1,4,7,10-tetraazacyclododecane-1,4,7-triyl)triacetic Acid]						>150			> 1000	> 1000	3.98	< 0.0316	1.26
CS(=O)(=O)c1ccc(-c2ccc3c(C(=O)NCC(=O)N4CCC[C@H]4C#N)ccnc3c2)cc1 [Compound 3BP-3128]	<6	6.1		8.2	9.2	4	8.8	>95					
O=C(NCC(=O)N1CCC[C@H]1C(=O)c1ncco1)c1ccnc2ccccc12 [Compound 3BP-3208]	<6	9.2		7.9	8.6	0.6	8.2	92					
CS(=O)(=O)c1ccc(-c2ccc3nccc(C(=O)NCC(=O)N4CCC[C@H]4C#N)c3c2)cc1 [Compound 3BP-3235]	<6	<6		8.4	9.8	12	9.2						
N#C[C@@H]1CC(F)(F)CN1C(=O)CNC(=O)c1ccnc2c1=CC(OCCCN1CCN(C(=O)CN3CCN4CCN5CCN(CC3)CC(=O)[O][In]([O]C(=O)C5)[O]C(=O)C4)CC1)CC=2 (some centres unmarked) [Compound 3BP-3468]	<6	<6	9	8.7	10.5	69	9.2						
